Data on two compounds can be found in patent US8507676B2, “Heterocyclic oxime compounds” (Novartis AG, priority 2009, dated 2013).

For data set [1], the target named is c-MET receptor tyrosine kinase, GST-c-MET(969-1390) (Homo sapiens (Human), UniProt P08581). Briefly: EPK c-MET profiling assay (LanthaScreen TR-FRET kinase assay). It is filed as biochemical. As to conditions: recombinant GST-c-MET(969-1390), 2 μM ATP, 60 minutes at room temperature; read-out: c-Met biochem (IC50 nM). On the technique in general: TR-FRET usually uses a lanthanide donor and a delayed reading to cut background.
Chain of c-MET receptor tyrosine kinase, GST-c-MET(969-1390) (P08581 969-1390): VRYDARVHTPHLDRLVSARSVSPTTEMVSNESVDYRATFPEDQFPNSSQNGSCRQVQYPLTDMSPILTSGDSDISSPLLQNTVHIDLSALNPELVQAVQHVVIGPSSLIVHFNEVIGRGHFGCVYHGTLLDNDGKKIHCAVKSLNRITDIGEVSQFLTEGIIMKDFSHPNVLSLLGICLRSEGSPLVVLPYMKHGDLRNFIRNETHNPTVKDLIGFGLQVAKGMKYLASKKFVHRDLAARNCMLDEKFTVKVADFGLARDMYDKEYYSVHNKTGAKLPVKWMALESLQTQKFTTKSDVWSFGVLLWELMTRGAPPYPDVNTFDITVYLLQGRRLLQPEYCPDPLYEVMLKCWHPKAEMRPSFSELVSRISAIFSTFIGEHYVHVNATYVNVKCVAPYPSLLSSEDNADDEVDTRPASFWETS
Experimental: A number of compounds of the present invention were assayed in an antibody based kinase phosphorylation assay as follows.
EPK c-MET Profiling Assay:
The EPK kinase assay for c-MET receptor tyrosine kinase was developed, using the purified recombinant GST-fusion protein, containing the cytoplasmic domain of the enzyme.
The kinase assay is based on the LanthaScreen™ technology. LanthaScreen™ is the detection of Time-Resolved Fluorescence Resonance Energy Transfer (TR-FRET) using lanthanide chelates to measure interactions between various binding partners. In a TR-FRET kinase assay, a long-lifetime lanthanide donor species is conjugated to an antibody that specifically binds to a phosphorylated product of a kinase reaction that is labeled with a suitable acceptor fluorophore. This antibody-mediated interaction brings the lanthanide donor and the acceptor into proximity such that resonance energy transfer can take place, resulting in a detectable increase in the FRET signal.
The kinase reactions were performed in 384 well microtiter plates in a total reaction volume of 10.05 μL. […]
Subsequently 5 μL of detection mix (50 mM Tris/HCl, 2 mM DTT, 0.05% Tween20, 20 μM sodium orthovanadate, 1% BSA, 1 nM Tb-PY20 antibody) were added to the stopped reactions. After 45 minutes incubation in dark at room temperature, the plates were measured in a Perkinelmer Envision fluorescence reader.

The nature of data set [2]: stability of the isolated compound at nucleophiles such as methanol. Type of data set: physicochemical. Conditions: degrades into starting material 75-R. The procedure:
Previously prepared (E)-1-(3-(1-(5,7-difluoroquinolin-6-yl)ethyl)-[1,2,4]triazolo[4,3-b]pyridazin-6-yl)ethanone oxime (75-R, 100 mg, 0.271 mmol) in anhydrous THF (8 mL) was added diphosgene (0.1 mL, 0.829 mmol) dropwise at 0° C., and the reaction mixture was heated at 50° C. for 4 hr. Oil bath was removed, and the reaction mixture was cooled in an ice-water bath. An ammonia solution (0.5 N in dioxane, 8.0 mL, 4.0 mmol) was added dropwise. The temperature was allowed to rise to rt naturally, and the reaction mixture was stirred at rt overnight. Solvent was evaporated, and the residue was purified by column chromatography (8% methanol in ethyl acetate as eluent) to afford 64 mg (45.8% yield) of title compound as white solid, which was unstable at nucleophiles such as methanol, and was pro to degrade into starting material 75-R. ^1H-NMR (400 MHz, DMSO-d6) δ ppm 8.96 (d, 1H), 8.44 (d, 1H), 8.34 (d, 1H), 8.10 (d, 1H), 7.56-7.74 (m, 2H), 7.34 (s br, 2H), 5.27 (q, 1H), 2.02 (d, 3H), 2.03 (s, 3H). LCMS (method B): [MH]^+=412, tR=2.25 min.

Molecules are shown by their SMILES.

As to `C/C(=N\OCCO)c1ccc2nnc(C(F)(F)c3ccc4ncccc4c3)n2n1` [Example 50, (E)-1-(3-(Difluoro(quinolin-6-yl)methyl)-[1,2,4]triazolo[4,3-b]pyridazin-6-yl)ethanone O-2-hydroxyethyl oxime], the IC50 in data set [1] was 1.5 nM.
For `C/C(=N\OC(N)=O)c1ccc2nnc([C@H](C)c3c(F)cc4ncccc4c3F)n2n1` [Example 77-R, (R,E)-1-(3-(1-(5,7-difluoroquinolin-6-yl)ethyl)-[1,2,4]triazolo[4,3-b]pyridazin-6-yl)ethanone O-carbamoyl oxime], in data set [2], the “stability at nucleophiles such as methanol” value is given as “unstable”.

In general, IC50 refers to the concentration needed to halve the response being measured.
